{"source": "paper PMC10614625", "about": "(Proceedings of the National Academy of Sciences of the …, 2023)", "key": {"[1]": {"target": "T1, ApGLNT1 (Acyrthosiphon pisum, UniProt F8RL01)", "T1 sequence (F8RL01 1-500)": "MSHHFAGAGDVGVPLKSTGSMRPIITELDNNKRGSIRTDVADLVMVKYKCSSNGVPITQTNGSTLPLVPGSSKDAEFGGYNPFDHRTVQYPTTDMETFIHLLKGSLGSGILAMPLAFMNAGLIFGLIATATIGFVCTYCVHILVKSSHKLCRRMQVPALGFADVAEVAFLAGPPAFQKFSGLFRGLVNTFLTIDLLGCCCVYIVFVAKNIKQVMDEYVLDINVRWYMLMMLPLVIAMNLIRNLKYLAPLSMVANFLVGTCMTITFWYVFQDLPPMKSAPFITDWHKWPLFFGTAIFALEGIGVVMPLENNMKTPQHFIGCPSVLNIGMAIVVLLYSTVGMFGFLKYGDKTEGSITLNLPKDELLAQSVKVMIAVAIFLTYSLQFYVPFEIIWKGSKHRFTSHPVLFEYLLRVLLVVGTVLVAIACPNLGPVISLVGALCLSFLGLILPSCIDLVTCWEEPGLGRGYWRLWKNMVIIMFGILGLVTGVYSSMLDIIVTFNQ", "experiment": "cell-based"}, "[2]": {"target": "T2, PhumGLNT1 (Pediculus humanus, UniProt A0A2L0RIB5)", "T2 sequence (A0A2L0RIB5 1-513)": "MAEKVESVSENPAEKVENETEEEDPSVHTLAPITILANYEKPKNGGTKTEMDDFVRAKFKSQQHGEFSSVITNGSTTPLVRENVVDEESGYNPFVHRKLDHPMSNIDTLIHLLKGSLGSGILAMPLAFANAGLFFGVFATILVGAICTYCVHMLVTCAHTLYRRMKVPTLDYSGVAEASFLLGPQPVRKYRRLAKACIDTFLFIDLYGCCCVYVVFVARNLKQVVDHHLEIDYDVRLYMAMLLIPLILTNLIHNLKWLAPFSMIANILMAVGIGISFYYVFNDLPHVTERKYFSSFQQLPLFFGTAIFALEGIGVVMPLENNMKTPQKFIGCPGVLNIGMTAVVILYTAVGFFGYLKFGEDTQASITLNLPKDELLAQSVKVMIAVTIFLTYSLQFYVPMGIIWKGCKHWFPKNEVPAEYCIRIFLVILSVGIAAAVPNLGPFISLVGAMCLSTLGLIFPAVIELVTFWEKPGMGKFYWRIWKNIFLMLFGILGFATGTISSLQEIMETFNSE", "experiment": "cell-based"}, "[3]": {"target": "T3, PcitGLNT1 (Planococcus citri, UniProt A0A2L0RIC1)", "T3 sequence (A0A2L0RIC1 1-502)": "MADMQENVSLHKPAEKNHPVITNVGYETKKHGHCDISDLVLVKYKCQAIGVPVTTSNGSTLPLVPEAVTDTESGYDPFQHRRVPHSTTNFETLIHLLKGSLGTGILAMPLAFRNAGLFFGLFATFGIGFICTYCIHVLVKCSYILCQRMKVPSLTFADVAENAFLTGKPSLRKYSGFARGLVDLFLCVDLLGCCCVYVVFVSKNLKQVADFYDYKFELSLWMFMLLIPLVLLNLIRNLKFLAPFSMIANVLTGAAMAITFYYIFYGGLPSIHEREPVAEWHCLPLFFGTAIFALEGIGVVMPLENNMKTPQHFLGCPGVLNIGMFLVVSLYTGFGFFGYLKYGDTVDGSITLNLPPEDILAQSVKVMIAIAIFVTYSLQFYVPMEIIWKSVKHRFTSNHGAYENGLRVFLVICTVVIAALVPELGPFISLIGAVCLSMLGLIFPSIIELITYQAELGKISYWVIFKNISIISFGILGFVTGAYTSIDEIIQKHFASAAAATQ", "experiment": "cell-based"}, "[4]": {"target": "T4, DcitGLNT1 (Diaphorina citri, UniProt A0A2L0RID4)", "T4 sequence (A0A2L0RID4 1-508)": "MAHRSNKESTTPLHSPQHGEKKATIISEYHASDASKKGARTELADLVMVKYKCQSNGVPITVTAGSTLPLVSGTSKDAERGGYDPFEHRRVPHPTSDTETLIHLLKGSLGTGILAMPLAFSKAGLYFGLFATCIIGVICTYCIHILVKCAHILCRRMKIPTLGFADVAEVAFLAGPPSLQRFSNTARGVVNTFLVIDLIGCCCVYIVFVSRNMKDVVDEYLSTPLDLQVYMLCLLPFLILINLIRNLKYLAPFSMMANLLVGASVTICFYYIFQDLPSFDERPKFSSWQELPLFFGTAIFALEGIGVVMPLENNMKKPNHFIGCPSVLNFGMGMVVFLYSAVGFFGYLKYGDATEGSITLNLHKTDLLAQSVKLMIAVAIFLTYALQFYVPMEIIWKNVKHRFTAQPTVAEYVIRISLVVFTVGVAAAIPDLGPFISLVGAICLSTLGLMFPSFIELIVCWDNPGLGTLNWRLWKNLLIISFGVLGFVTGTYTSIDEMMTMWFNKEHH", "experiment": "cell-based"}, "[5]": {"target": "T2, PhumGLNT1", "experiment": "two-electrode voltage clamp, inward current in Xenopus oocytes", "format": "cell-based"}, "[6]": {"target": "T3, PcitGLNT1", "experiment": "two-electrode voltage clamp, inward current in Xenopus oocytes", "format": "cell-based"}, "[7]": {"target": "T4, DcitGLNT1", "experiment": "two-electrode voltage clamp, inward current in Xenopus oocytes", "format": "cell-based"}, "[8]": {"target": "T1, ApGLNT1", "experiment": "two-electrode voltage clamp, inward current in Xenopus oocytes", "format": "cell-based"}}}
{"smiles": "N=C(N)NCCC[C@H](N)C(=O)O", "note": "[arginine]", "values": [{"measurement": "IC50", "setting": "[1]", "value": "5.1 ± 0.9", "unit": "mM"}, {"measurement": "IC50", "setting": "[2]", "value": "2.8 ± 2", "unit": "mM"}, {"measurement": "IC50", "setting": "[3]", "value": "2.5 ± 0.2", "unit": "mM"}, {"measurement": "IC50", "setting": "[4]", "value": "6.1 ± 0.8", "unit": "mM"}]}
{"smiles": "NC(=O)CC[C@H](N)C(=O)O", "note": "[glutamine]", "values": [{"measurement": "EC50", "setting": "[5]", "value": "1.5 ± 0.2", "unit": "mM"}, {"measurement": "EC50", "setting": "[6]", "value": "2.1 ± 0.2", "unit": "mM"}, {"measurement": "EC50", "setting": "[7]", "value": "35.2 ± 18.5", "unit": "mM"}, {"measurement": "EC50", "setting": "[8]", "value": "5.7 ± 0.8", "unit": "mM"}]}
